According to patent US8440442B2, “Method of assaying 5-FU” (Myriad Genetics, Inc, priority 2009, dated 2013):

Biological target: T1, dihydropyrimidine dehydrogenase (DPD) (Homo sapiens, UniProt Q12882)
T1 construct: from tissue; host or cells: donor whole blood (K2EDTA), plasma separated from it, and WBC/buffy coat
T1 sequence (Q12882 4-1025): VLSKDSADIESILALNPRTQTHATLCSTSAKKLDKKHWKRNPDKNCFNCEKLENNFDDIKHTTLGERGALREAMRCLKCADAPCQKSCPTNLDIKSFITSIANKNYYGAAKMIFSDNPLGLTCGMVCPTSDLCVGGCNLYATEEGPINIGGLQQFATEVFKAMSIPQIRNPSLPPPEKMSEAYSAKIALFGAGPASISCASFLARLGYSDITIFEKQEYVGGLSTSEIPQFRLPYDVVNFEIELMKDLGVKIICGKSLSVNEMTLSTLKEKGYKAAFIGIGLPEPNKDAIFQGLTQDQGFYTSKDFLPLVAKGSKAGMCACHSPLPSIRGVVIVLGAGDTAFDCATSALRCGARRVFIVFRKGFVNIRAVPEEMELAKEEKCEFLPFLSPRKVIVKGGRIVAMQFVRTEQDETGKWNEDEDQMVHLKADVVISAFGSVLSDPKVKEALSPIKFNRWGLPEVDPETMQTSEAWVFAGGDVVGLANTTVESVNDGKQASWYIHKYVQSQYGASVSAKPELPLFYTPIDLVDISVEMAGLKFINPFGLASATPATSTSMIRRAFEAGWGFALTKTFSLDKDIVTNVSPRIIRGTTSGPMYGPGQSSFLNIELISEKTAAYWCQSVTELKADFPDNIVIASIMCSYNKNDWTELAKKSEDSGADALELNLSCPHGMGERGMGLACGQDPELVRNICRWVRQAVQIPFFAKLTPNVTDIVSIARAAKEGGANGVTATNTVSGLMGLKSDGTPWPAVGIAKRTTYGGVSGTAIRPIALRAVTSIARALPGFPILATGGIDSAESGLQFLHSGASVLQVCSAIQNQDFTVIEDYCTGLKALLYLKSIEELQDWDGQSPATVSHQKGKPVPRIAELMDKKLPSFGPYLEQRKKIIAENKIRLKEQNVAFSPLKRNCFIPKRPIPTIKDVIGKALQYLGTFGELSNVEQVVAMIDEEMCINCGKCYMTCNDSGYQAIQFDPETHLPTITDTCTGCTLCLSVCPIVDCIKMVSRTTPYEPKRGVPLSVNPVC
Assay: Amount of DPD inactivator needed: gimeracil in 5-FU spiked blood, plasma with or without added WBC/buffy coat
Type: biochemical
Conditions: for Average 5-FU Measurement Initial / Average 5-FU Measurement 24-hour: in ng/mL; for Average 5-FU Measurement 24-hour: plasma 24 hours at room temperature
Protocol: In the following illustrative examples, 5-FU was measured using an antibody-based agglutination assay on the Olympus AU680 Analyzer using an antibody disclosed in U.S. Pat. No. 7,205,116. Specifically, the concentration of 5-FU in a sample is determined based on the absorbance of a sample, which is determined by the amount of aggregation by the nanoparticles. The system requires two reagents, which when mixed in the absence of free 5-FU will form large aggregates of nanoparticles and scatter light to result in a higher absorption value. In the presence of free 5-FU, the agglutination reaction becomes somewhat inhibited and scattering of light is less, causing a lower absorption value. The instrument is calibrated twice monthly, and a curve is generated (Absorbance vs. 5-FU concentration). Absorbance values from individual samples are compared against this curve to determine concentration.
Generally in the agglutination assay, 95 μl of a buffer containing 5-FU-labeled amino-dextran is pipetted to a cuvette, followed by 7 μL of a filtered plasma sample. The sample and reagent are mixed and then incubated for about 3.5 minutes. 95 μl of 5-FU antibody-conjugated nanoparticles is pipetted into the cuvette and mixed. The complete reaction incubates for about 6.2 minutes. A series of 27 measurements at 600 nm are taken at regular intervals by the AU680 analyzer throughout this process, and 5-FU concentration is calculated using the measurements from two specific time points.
Four tubes of blood (spray-on K2EDTA tubes, 10 mL) was drawn from each of six donors, and gently inverted several times to mix anti-coagulant. All donor blood was pooled into one large tube, and two equal aliquots of that pooled blood were transferred to two new tubes. The remaining blood was used to isolate white blood cell (WBC)/buffy coat. WBC/buffy coat was isolated by centrifuging the remaining blood tubes, extracting and pooling the WBC layer from each tube, centrifuging again to enrich the WBC/buffy coat, and separating the enriched WBC/buffy coat layer into a clean tube. One volume of blood was spiked with a calculated volume of stock 5-FU (at 200 ng/μL) for a final concentration of 500 ng/mL, and the other volume of blood was spiked with a calculated volume of stock 5-FU (at 200 ng/μL) for a final concentration of 1500 ng/mL. Three sets of eight tubes each were prepared to aliquot the spiked blood into. In addition, a negative control was used that was inoculated with 300 μL of 30% methanol/water instead of gimeracil. To four of the eight tubes per set, the low concentration 5-FU blood was aliquotted, 6 mL each tube. The high concentration 5-FU blood was aliquotted to the remaining four tubes per set, as well as to the negative control tube, 6 mL each. The eight tubes were then inoculated with either 300 μL of 0.12 mg/mL gimeracil in 30% MeOH/water or 300 μL of 0.04 mg/mL gimeracil. Blood tubes were inverted to mix the gimeracil, and then sat at room temperature for 45 minutes. Blood tubes were centrifuged at 2000×g for 10 minutes and room temperature. Plasma was aspirated immediately after centrifugation and dispensed into clean cryovials. The WBC/buffy coat was added to designated tubes of plasma, and vortexed to evenly mix. Plasma samples were run under standard conditions for the AU680 analyzer (200 μL, spin for 15 minutes at 12,500 rpm). Measurements were taken immediately after adding WBC/buffy coat (“initial”), as well as 24 hours (“24-hour”), after addition of WBC/buffy coat. For the 24-hour measurement, plasma was stored at room temperature for the first 24 hours of the experiment to simulate overnight ambient shipping.

[1] = target 5-FU 500 ng/mL, gimeracil 2000 ng/mL, NO WBC
[2] = target 5-FU 500 ng/mL, gimeracil 2000 ng/mL, w/WBC
[3] = target 5-FU 500 ng/mL, gimeracil 6000 ng/mL, NO WBC
[4] = target 5-FU 500 ng/mL, gimeracil 6000 ng/mL, w/WBC
[5] = target 5-FU 1500 ng/mL, gimeracil 2000 ng/mL, NO WBC
[6] = target 5-FU 1500 ng/mL, gimeracil 2000 ng/mL, w/WBC
[7] = target 5-FU 1500 ng/mL, gimeracil 6000 ng/mL, NO WBC
[8] = target 5-FU 1500 ng/mL, gimeracil 6000 ng/mL, w/WBC

How did the “% change (Initial vs. 24-hour)” value [1] turn out when Oc1cc(O)c(Cl)cn1 [Gimeracil, 5-chloro-2,4-dihydroxypyridine] was run?
The value was −2.9%.

What about the “Average 5-FU Measurement Initial” value (target 5-FU 500 ng/mL, gimeracil 2000 ng/mL, NO WBC, initial) of the same molecule?
The value was 488.3.

What about the “Average 5-FU Measurement 24-hour” value [1] of the same molecule?
Its value is 474.3.

And the “% change (Initial vs. 24-hour)” value [2]?
The value was 2.7%.

What about the “Average 5-FU Measurement Initial” value (target 5-FU 500 ng/mL, gimeracil 2000 ng/mL, w/WBC, immediately after adding WBC/buffy coat) of the same molecule?
Its value is 465.8.

What about the “Average 5-FU Measurement 24-hour” value [2] of the same molecule?
Its value is 478.6.

What about the “% change (Initial vs. 24-hour)” value [3] of the same molecule?
Its value is 1.7%.

And the “Average 5-FU Measurement Initial” value (target 5-FU 500 ng/mL, gimeracil 6000 ng/mL, NO WBC, initial)?
The value was 479.1.

What about the “Average 5-FU Measurement 24-hour” value [3] of the same molecule?
The value was 487.3.

What about the “% change (Initial vs. 24-hour)” value [4] of the same molecule?
Its value is 1.0%.

And the “Average 5-FU Measurement Initial” value (target 5-FU 500 ng/mL, gimeracil 6000 ng/mL, w/WBC, initial)?
The value was 473.7.

What about the “Average 5-FU Measurement 24-hour” value [4] of the same molecule?
Its value is 478.6.

And the “% change (Initial vs. 24-hour)” value [5]?
Its value is −0.5%.

And the “Average 5-FU Measurement Initial” value (target 5-FU 1500 ng/mL, gimeracil 2000 ng/mL, NO WBC, initial)?
The value was 1434.9.

What about the “Average 5-FU Measurement 24-hour” value [5] of the same molecule?
Its value is 1427.3.

What about the “% change (Initial vs. 24-hour)” value [6] of the same molecule?
Its value is 2.9%.

What about the “Average 5-FU Measurement Initial” value (target 5-FU 1500 ng/mL, gimeracil 2000 ng/mL, w/WBC, initial) of the same molecule?
The value was 1377.7.

What about the “Average 5-FU Measurement 24-hour” value [6] of the same molecule?
The value was 1418.1.

What about the “% change (Initial vs. 24-hour)” value [7] of the same molecule?
The value was 2.0%.

And the “Average 5-FU Measurement Initial” value (target 5-FU 1500 ng/mL, gimeracil 6000 ng/mL, NO WBC, initial)?
Its value is 1430.3.

And the “Average 5-FU Measurement 24-hour” value [7]?
Its value is 1458.3.

What about the “% change (Initial vs. 24-hour)” value [8] of the same molecule?
The value was −0.9%.

What about the “Average 5-FU Measurement Initial” value (target 5-FU 1500 ng/mL, gimeracil 6000 ng/mL, w/WBC, initial) of the same molecule?
Its value is 1402.9.

What about the “Average 5-FU Measurement 24-hour” value [8] of the same molecule?
The value was 1390.1.
